{"source": "patent US9920383B2", "about": "“Active substances for increasing the stress defense in plants to abiotic stress, and methods of finding them” (Bayer Intellectual Property GMBH, priority 2005, dated 2018)", "experiment_in_all_cases": "Gene expression profiling (maize genome array), drought stress", "assay_type_in_all_cases": "in vivo, maize cv. Lorenzo", "details_in_all_cases": "vs unstressed solvent-dressed control", "key": {"[1]": {"system": "Zm.12035.1.A1_at similar to AT3G10120", "experimental": "(§1) Maize seeds cv. Lorenzo were dressed as described in example 1 with the compound VIII-3 (=4-cyclopropylaminocarbonyl-N-(2-methoxybenzoyl)benzenesulfonamide) or with solvent. The plants were raised for 10 days in a controlled-environment chamber (conditions: see example 1).\n(§2) Thereafter, the plants were exposed to the following stress conditions: • (1) Heat stress: 6 h at 45° C. • (2) Drought stress: 7 days without irrigation, 24° C.\n(§3) The control plants of the specific experimental group were kept under the standard conditions described in example 1 (temperature, irrigation).\n(§4) After the stress treatment, the leaves of the stressed plants and of the unstressed control plants were harvested, shock-frozen in liquid nitrogen and stored at −80° C. until processed. All experiments were carried out in replications of in each case 2 pots.\n(§5) The labeled RNA probes for the DNA chip hybridization were prepared as described in the protocols (Expression Analysis. Technical Manual) from Affymetrix (Affymetrix Inc., 3380 Central Expressway, Santa Clara, Calif., USA). First, total RNA was isolated from in each case 500 mg of the harvested leaves. In each case 10 μg of total RNA were used for the cDNA first- and second-strand synthesis. The cDNA was amplified with T7 polymerase and simultaneously labeled with biotin-UTP. In each case 20 μg of this biotinylated […] were employed for the hybridization of the maize genome array from Affymetrix. This DNA microarray contains DNA sequences whose totality represents 13339 genes. Thereafter, the DNA microarrays were washed in the Affymetrix Fluidics Station, stained with streptavidin/phycoerythrin (Molecular Probes, P/N S-866) and scanned with the appropriate Agilent Laser Scanner (Agilent Gene Array Scanner). The fluorescence data obtained were analyzed using Affymetrix's Microarray Suite 5 software. After the quality assurance had been performed, all DNA chip analyses were stored in a database. To determine relevant expression values (induction factors, repression factors), the absolute expression values of the genes from the respective stress experiments were compared with the values of the respective control experiments (i.e. without abiotic stress and solvent-dressing only), based on the scoring function predetermined by the Affymetrix software. The resulting 4 expression values per gene were averaged by calculating the median value. These median values are shown in the results tables as induction factors. Similarity comparisons of expression profiles of various experiments and cluster analyses were carried out using the “genedata expressionist” software from Genedata (Genedata, Maulbeerstr. 46, CH-4016 Basel, Switzerland).\n(§6) The induction patterns derived from table 5 and which are shown directly by the resulting expression values show characteristic inductions by the action of the compound 4-cyclopropylaminocarbonyl-N-(2-methoxybenzoyl)benzenesulfonamide (=VIII-3), the effect on the putative N-carbamyl-L-amino acid amidohydrolase [Zm.11840.1.A1_at] and on the putative serine carboxypeptidase [Zm18994.2.A1-at] being most pronounced. • b) Under dried stress conditions, i.e. the tested maize plants (dressed with 2 mg a.i. 4-cyclopropylaminocarbonyl-N-(2-methoxybenzoyl)benzenesulfonamide/g seeds) were exposed to a temperature of 24° C. for 7 hours 7 days after germination.\n(§7) • Condition A: drought stress (7 days, 24° C.) • Condition B: Seeds dressed with 4-cyclopropylaminocarbonyl-N-(2-methoxybenzoyl)benzenesulfonamide (VIII-3)/NO drought stress • Condition C: Seeds dressed with 4-cyclopropylaminocarbonyl-N-(2-methoxybenzoyl)benzenesulfonamide (VIII-3)+drought stress (7 days, 24° C.)."}, "[2]": {"system": "Zm.13229.1.S1_at NBS-LRR type disease resistance protein O2 (fragment)", "experimental": "as §1, §2, §3, §4, §5, §6, §7"}, "[3]": {"system": "Zm.18682.1.A1_at unknown protein", "experimental": "as §1, §2, §3, §4, §5, §6, §7"}, "[4]": {"system": "Zm.485.1.A1_at non-symbiotic hemoglobin (HBT) (ZEAMP GLB1)", "experimental": "as §1, §2, §3, §4, §5, §6, §7"}, "[5]": {"system": "Zm.818.1.A1_at universal stress protein", "experimental": "as §1, §2, §3, §4, §5, §6, §7"}, "[6]": {"system": "Zm.818.2.A1_at expressed protein", "experimental": "as §1, §2, §3, §4, §5, §6, §7"}, "[7]": {"details": "seeds dressed with VIII-3 (2 mg a.i./g seeds), NO drought stress"}, "[8]": {"details": "seeds dressed with VIII-3 + drought stress (7 days, 24° C.)"}}, "data": [{"molecule": "COc1ccccc1C(=O)NS(=O)(=O)c1ccc(C(=O)NC2CC2)cc1", "note": "[VIII-3, 4-cyclopropylaminocarbonyl-N-(2-methoxybenzoyl)benzenesulfonamide]", "values": [{"measurement": "induction factor Zm.12035.1.A1_at, Condition B", "setting": "[1]; [7]", "value": 0.90}, {"measurement": "induction factor Zm.12035.1.A1_at, Condition C", "setting": "[1]; [8]", "value": 3.66}, {"measurement": "induction factor Zm.13229.1.S1_at, Condition B", "setting": "[2]; [7]", "value": 1.02}, {"measurement": "induction factor Zm.13229.1.S1_at, Condition C", "setting": "[2]; [8]", "value": 3.39}, {"measurement": "induction factor Zm.18682.1.A1_at, Condition B", "setting": "[3]; [7]", "value": 1.12}, {"measurement": "induction factor Zm.18682.1.A1_at, Condition C", "setting": "[3]; [8]", "value": 4.19}, {"measurement": "induction factor Zm.485.1.A1_at, Condition B", "setting": "[4]; [7]", "value": 1.00}, {"measurement": "induction factor Zm.485.1.A1_at, Condition C", "setting": "[4]; [8]", "value": 5.49}, {"measurement": "induction factor Zm.818.1.A1_at, Condition B", "setting": "[5]; [7]", "value": 1.12}, {"measurement": "induction factor Zm.818.1.A1_at, Condition C", "setting": "[5]; [8]", "value": 8.47}, {"measurement": "induction factor Zm.818.2.A1_at, Condition B", "setting": "[6]; [7]", "value": 1.10}, {"measurement": "induction factor Zm.818.2.A1_at, Condition C", "setting": "[6]; [8]", "value": 5.40}]}]}
